# Data published in patent publication US20120003661A1, “METHODS AND DEVICES FOR THE SELECTIVE DETECTION OF MICROORGANISMS” (C3 JIAN, INC., priority 2010, published 2012).
# “Also recorded” adds a separate entry of the source.
# Test system: bacteria, fungi, and/or yeasts
# Assay type: binding
# Conditions: microorganism(s) listed as target(s) of the targeting peptide; wrapped target lists given cell by cell
row,Substance,Target(s)
1,1T-260 (NILYFIHDENQWEPQKAEIFRGSIKHCAWLSS),"A. naeslundii, P. gingivalis, S. epidermidis,; also recorded: S. gordonii, S. mitis,; also recorded: S. mutans, S. oralis, S. sanguinis"
2,PF-125 (YVVGALVILAVAGLIYSMLRKA),"S. epidermidis, M. luteus, P. mirabilis,; also recorded: E. coli, P. aeruginosa,; also recorded: C. albicans, MRSA, S. pneumoniae,; also recorded: E. faecalis, C. jejuni"
3,PF-S003 (ALALLKQDLLNFEGRGRIITSTYLQFNEGCVP),yeast and hyphal forms
4,1T-278 (SINSSAGIQPHCLSSSFVLRTKHCFY),"A. naeslundii, F. nucleatum, P. gingivalis,; also recorded: S. gordonii, S. mitis,; also recorded: S. mutans, S. oralis, S. salivarious,; also recorded: S. sanguinis"
5,1T-286 (LGFFNNKADLVKADTERDNRMSSLKIKDL),S. sanguinis
6,PF-055 (GHVFNGNNKRNL),S. mutans
7,PF-011 (MFCYYKQHKGDNFSIEEVKNIIADNEMKVN),"M. luteus, E. coli, P. aeruginosa,; also recorded: S. pneumoniae, C. jeikeium"
8,1T-258 (TINIDDKVLDYLKKINSKAITIDLIGCAS),"A. naeslundii, F. nucleatum, P. gingivalis,; also recorded: T. denticola, S. mitis,; also recorded: S. mutans, S. oralis"
9,1T-280 (TNNKNKVIIKAIKFKNKDFINLDLFIYRR),"A. naeslundii, F. nucleatum, P. gingivalis,; also recorded: T. denticola, S. gordonii,; also recorded: S. mitis, S. mutans, S. oralis,; also recorded: S. salivarious, S. sanguinis"
10,1T-302 (IIIILPKIYLVCKTV),"A. naeslundii, P. gingivalis, S. epidermidis,; also recorded: S. gordonii, S. mitis,; also recorded: S. mutans, S. oralis, S. salivarious,; also recorded: S. sanguinis"
11,1T-274 (ETTTEINAIKLHRIKQRSPQGTRRVN),"F. nucleatum, S. mutans, S. oralis,; also recorded: S. sanguinis"
12,PF-158 (VRLESRPADLPE),S. epidermidis
13,PF-041 (ELLVILPGFI),MRSA
14,PF-S018 (GMPQIPRLRI),yeast and hyphal forms
15,PF-145 (GIVLTGRAGLVSGACSMALGVGLG),"S. epidermidis, M. luteus, P. mirabilis,; also recorded: E. coli, P. aeruginosa,; also recorded: C. albicans, MRSA, S. pneumoniae,; also recorded: E. faecalis, C. jeikeium,; also recorded: C. jejuni, M. smegmatis"
16,PF-157 (HTAVVWLAGVSGCVALSHCEPA),"S. epidermidis, M. luteus, P. mirabilis,; also recorded: E. coli, P. aeruginosa,; also recorded: C. albicans, MRSA, S. pneumoniae,; also recorded: E. faecalis, C. jeikeium,; also recorded: C. jejuni"
17,PF-174 (RGGDSPARRRPGLAGPGGPG),"S. epidermidis, P. aeruginosa, C. jeikeium"
18,PF-024 (DLRKAK),"C. albicans hyphae; also recorded: M. luteus, C. albicans, MRSA, E. faecalis,; also recorded: C. jeikeium"
19,PF-047 (NQEPSLQQDKEQKDNKG),S. mutans
20,PF-052 (QELINEAVNLLVKSK),"S. epidermidis, M. luteus, E. coli,; also recorded: MRSA, E. faecalis, C. jeikeium,; also recorded: C. jejuni"
21,PF-037 (MTKKRRYDTTEFGLAHSMTAKITLHQALYK),"S. epidermidis, M. luteus, P. aeruginosa,; also recorded: C. albicans, MRSA,; also recorded: S. pneumoniae, E. faecalis, C. jeikeium"
22,PF-132 (RPGDGAAEQGRSR),"S. epidermidis, C. jeikeium"
23,PF-124 (MADGQIAAIAKLHGVPVATRNIRHFQSFGVELINPWSG),"S. epidermidis, M. luteus, P. mirabilis,; also recorded: E. coli, P. aeruginosa,; also recorded: C. albicans, MRSA, E. faecalis,; also recorded: C. jejuni"

# Same assay, conditions: microorganism(s) that the targeting peptide binds, as listed in Table 2
row,Substance,Target(s)
1,PF-C291 (HPFLTGTGCPLFLIFRLFFVKAYFSFTVF),"A. naeslundii, F. nucleatum, P. gingivalis,; also recorded: S. mutans"
2,PF-S003 (ALALLKQDLLNFEGRGRIITSTYLQFNEGCVP),"S. epidermidis, M. luteus, P. mirabilis,; also recorded: E. coli, P. aeruginosa,; also recorded: C. albicans, MRSA, S. pneumoniae,; also recorded: E. faecalis, C. jeikeium,; also recorded: C. jejuni, M. smegmatis"
3,PF-W (FIDSFIRSF),S. mutans
4,PF-C259 (AEIQPHCLSVL),"F. nucleatum, S. mutans"
5,PF-C145 (YGKESDP),"A. naeslundii, F. nucleatum, P. gingivalis,; also recorded: S. mutans, T. denticola"
6,PF-Y (FIKHFIHRF),S. mutans
7,PF-S007 (VVAGVVLLTALAVGSKRKEKKQIKEIQRLLAATR),"S. epidermidis, MRSA"
8,PF-S026 (TELKYNGEEYLLLTQRDILAVIEK),"S. epidermidis, MRSA, C. jeikeium"
9,PF-S018 (GMPQIPRLRI),"S. epidermidis, M. luteus, C. albicans,; also recorded: MRSA, E. faecalis, C. jeikeium,; also recorded: C. jejuni"
10,PF-C120 (ASLSTMTFKVMELKELIILLCGLTMLMIQTEFV),"A. naeslundii, F. nucleatum, P. gingivalis,; also recorded: S. mutans, T. denticola"
11,PF-C093 (EKLGTMV),"A. naeslundii, F. nucleatum, S. mutans"
12,PF-C137 (QRMYWFKRGFETGDFSAGDTFAELK),"A. naeslundii, F. nucleatum, P. gingivalis,; also recorded: S. mutans"
13,PF-C080 (INIPGLF),"A. naeslundii, F. nucleatum, S. mutans"
14,PF-C058 (FETGFGDGYYMSLWGLNEKDEVCKVVIPFINPELID),"A. naeslundii, F. nucleatum, P. gingivalis,; also recorded: S. mutans"
15,PF-C045 (FREGMGWPLSNEGSPTAPLPKHRNQV),"A. naeslundii, T. denticola"

# Same assay, conditions: microorganism(s) the targeting peptide binds, as listed in Table 2
row,Substance,Target(s)
1,1T-29 (GSVIKKRRKRMSKKKHRKMLRRTRVQRRKLGK),"S. mutans, S. aureus, S. epidermidis,; also recorded: C. jeikeium, C. xerosis,; also recorded: C. striatum, P. aeruginosa"
2,1T-78 (FFKTIFVLILGALGVAAGLYIEKNYIDK),S. pneumoniae
3,1T-182 (LTASICRQWNDNSTPYQR),"A. naeslundii, F. nucleatum, P. gingivalis,; also recorded: T. denticola, S. gordonii,; also recorded: S. mitis, S. mutans, S. oralis,; also recorded: S. salivarious, S. sanguinis"
4,1T-64 (QTVHHIHMHVLGQRQMHWPPG),"S. aureus, S. epidermidis, C. jeikeium,; also recorded: C. xerosis, C. striatum,; also recorded: P. aeruginosa"
5,1T-181 (YGKESDP),"A. naeslundii, F. nucleatum, P. gingivalis,; also recorded: T. denticola, S. gordonii,; also recorded: S. mitis, S. mutans, S. oralis,; also recorded: S. salivarious, S. sanguinis"
6,1T-37 (YIVGALVILAVAGLIYSMLRKA),"S. mutans, S. aereus, S. epidermidis,; also recorded: C. jeikeium, C. xerosis,; also recorded: C. striatum, P. aeruginosa"
7,1T-130 (QKIIDMSKFLFSLILFIMIVVIYIGKSIGGYSAIVSSIMLELDTVLYNKKIFFIYK),"A. naeslundii, F. nucleatum, P. gingivalis,; also recorded: S. epidermidis, S. gordonii,; also recorded: S. mitis, S. mutans, S. oralis,; also recorded: S. salivarious, S. sanguinis"
8,1T-148 (IVELDDTTILERALSMLGEANA),"A. naeslundii, F. nucleatum, P. gingivalis,; also recorded: T. denticola, S. gordonii,; also recorded: S. mitis, S. mutans, S. oralis,; also recorded: S. salivarious, S. sanguinis"
9,1T-109 (VTTNVRQGAGS),"A. naeslundii, S. epidermidis, S. gordonii,; also recorded: S. mitis, S. mutans, S. oralis,; also recorded: S. salivarious, S. sanguinis"
10,1T-38 (VMFVLTRGRSPRPMIPAY),"S. mutans, S. aereus, S. epidermidis,; also recorded: C. jeikeium, C. xerosis,; also recorded: C. striatum, P. aeruginosa"
11,1T-46 (FSFKQRVMFRKEVERLR),"S. aureus, S. epidermidis, C. jeikeium,; also recorded: C. xerosis, C. striatum,; also recorded: P. aeruginosa"
12,1T-76 (EMRLSKFFRDFILWRKK),S. pneumoniae
13,1T-219 (RNINVSATFITEKSLV),S. sanguinis
14,1T-44 (DPALADFAAGMRAQVRT),"S. mutans, S. aureus, S. epidermidis,; also recorded: C. jeikeium, C. striatum,; also recorded: P. aeruginosa"
15,1T-185 (HYHFLLEFGFHKGDYLE),"A. naeslundii, F. nucleatum, P. gingivalis,; also recorded: T. denticola, S. gordonii,; also recorded: S. mitis, S. mutans, S. oralis,; also recorded: S. salivarious, S. sanguinis"
16,1T-207 (SPLEKYGTGSMTALTFLLGCCLLVLSKKSR),"F. nucleatum, S. sanguinis"
17,1T-83 (QKPRKNETFIGYIQRYDIDGNGYQSLPCPQN),S. pneumoniae
18,1T-158 (WENKPSPLGSIKKLQGLVYRLIGYRHFWV),"A. naeslundii, F. nucleatum, P. gingivalis,; also recorded: S. epidermidis, S. gordonii,; also recorded: S. mitis, S. mutans, S. oralis,; also recorded: S. salivarious, S. sanguinis"
19,1T-96 (VAGACAQPFGGQ),"S. gordonii, S. mitis, S. mutans,; also recorded: S. oralis, S. sanguinis"
20,1T-117 (GPGVVGPAPFSRLPAHALNL),S. mutans
21,1T-87 (EAVGQDLVDAHHP),"S. mitis, S. mutans, S. oralis"
22,1T-143 (MPKRHYYKLEAKALQFGLPFAYSPIQLLK),"A. naeslundii, F. nucleatum, P. gingivalis,; also recorded: S. epidermidis, S. gordonii,; also recorded: S. mitis, S. mutans, S. oralis,; also recorded: S. salivarious, S. sanguinis"
23,1T-50 (HSDEPIPNILFKSDSVH),P. aeruginosa
24,1T-22 (VPLDDGTRRPEVARNRDKDRED),"S. epidermidis, P. aeruginosa"
25,1T-133 (YFIKDDNEALSKDWEVIGNDLKGTIDKYGKEFKVR),"A. naeslundii, P. gingivalis, S. epidermidis,; also recorded: S. gordonii, S. mitis,; also recorded: S. mutans, S. oralis, S. salivarious,; also recorded: S. sanguinis"
26,1T-39 (FGFCVWMYQLLAGPPGPPA),"S. mutans, P. aeruginosa"
